The source of these data is PMC8219695 (Nature Communications, 2021).

The structures appear in SMILES notation. “And” between values parts separate entries of the source, which are not always exact repeats. Equal values may be shown once.

Assay [1] concerns the target T1, mMOR (Mus musculus, UniProt P42866).
T1 construct: signal peptide (heterologous, not specified) (N); expressed in transfected cells; pcDNA3.1(+) construct made in house
Description: BRET-based Nb33 recruitment assay at mMOR. Format: cell-based. The settings on record: single replicates, source data Fig 7a.

Assay [2] deals with T2, hMOR (Homo sapiens, UniProt P35372).
T2 construct: expressed in transfected cells; plasmid a gift from Dr. Nevin Lambert
Kind of assay: CAMYEL BRET cAMP agonist assay at hMOR. Format: cell-based. Particulars: hMOR, single replicates, source data Fig 6c.

Assay [3] deals with T1, mMOR. Description: CAMYEL BRET cAMP agonist assay at mMOR. The assay is classed as cell-based. The settings on record: mMOR, single replicates, source data Fig 6b.
Assay [4] has as its system CD1 mice. Kind of assay: Tail-flick antinociception in CD1 mice. The settings on record: sc; for Tail flick (%MPE), average / Tail flick latency in secs, Av / Tail flick latency in secs, av: average of 8 animals; for Tail flick (%MPE) / Tail flick latency: individual animals. The assay is classed as in vivo, mouse.
Setting [5] is: Log[drug] (M) -13, cAMP inhibition as % of DAMGO.

T2 sequence (P35372 whole entry): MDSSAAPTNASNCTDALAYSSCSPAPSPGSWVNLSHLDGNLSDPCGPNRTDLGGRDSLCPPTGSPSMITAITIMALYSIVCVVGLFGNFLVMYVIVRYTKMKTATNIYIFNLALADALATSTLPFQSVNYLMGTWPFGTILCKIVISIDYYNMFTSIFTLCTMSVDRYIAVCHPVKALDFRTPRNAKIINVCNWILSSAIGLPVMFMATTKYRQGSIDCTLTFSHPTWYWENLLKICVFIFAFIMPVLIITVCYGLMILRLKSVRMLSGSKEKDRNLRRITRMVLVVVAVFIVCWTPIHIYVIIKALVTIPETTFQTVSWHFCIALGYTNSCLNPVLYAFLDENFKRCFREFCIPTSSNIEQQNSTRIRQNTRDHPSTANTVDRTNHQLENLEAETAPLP
T1 sequence (P42866 whole entry): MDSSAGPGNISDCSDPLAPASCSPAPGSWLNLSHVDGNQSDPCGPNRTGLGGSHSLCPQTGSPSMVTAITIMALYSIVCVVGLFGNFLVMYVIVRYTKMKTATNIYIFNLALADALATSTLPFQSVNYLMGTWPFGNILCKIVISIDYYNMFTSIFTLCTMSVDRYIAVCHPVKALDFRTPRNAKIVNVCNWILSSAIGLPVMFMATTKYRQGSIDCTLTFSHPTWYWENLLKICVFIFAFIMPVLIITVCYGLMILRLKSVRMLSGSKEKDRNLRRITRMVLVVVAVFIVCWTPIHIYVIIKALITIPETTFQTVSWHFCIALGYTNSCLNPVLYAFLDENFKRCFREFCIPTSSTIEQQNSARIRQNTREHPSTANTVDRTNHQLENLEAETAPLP

On to `C[C@@H](NC(=O)[C@@H](N)Cc1ccc(O)cc1)C(=O)NCC(=O)N(C)[C@@H](Cc1ccccc1)C(=O)NCCO` [DAMGO, [D-Ala^2, N-Me-Phe^4, Gly^5-ol]-enkephalin, reference compound], for which the “Nb33 BRET assay at mMOR, response” value in assay [1] (Log[drug] (M) -4) was 116.548 and 99.0991 and 123.097 and 102.778 and 111.876 and 86.5818 and 91.4453 and 105.421 and 94.7199 and 96.8839 and 110.228 and 105.758 and 96.6672 and 105.453 and 97.0797 and 106.37 and 115.431 and 97.3489 and 102.87 and 112.822 and 97.3627; in assay [1] (Log[drug] (M) -5) it was 78.3004 and 105.49 and 93.3001 and 92.3549 and 96.5229 and 94.3135 and 107.346 and 108.338 and 93.8039 and 95.4962 and 95.2898 and 96.1807 and 98.423 and 95.5858 and 88.3338 and 114.596 and 90.0997 and 91.8485 and 91.211 and 101.524 and 97.9528; in assay [1] (Log[drug] (M) -8), 25.6157 and -0.9817 and 2.276 and 16.2956 and 7.2069 and 3.257 and 8.405 and 5.376 and 16.5535 and 18.8366 and 6.195 and 12.7572 and 5.664 and 5.763 and 13.2066 and 17.6481; in assay [1] (Log[drug] (M) -9), 2.545 and 18.2179 and 1.398 and 13.71 and 1.7362 and 12.589 and -5.813 and 7.089 and -10.8919 and 4.229 and 0.1289 and 0.7333 and 3.575 and -0.9155 and 34.3413 and 6.961 and -1.352 and 3.399 and 3.853 and 3.842 and 2.552; in assay [1] (Log[drug] (M) -10) it was 3.45 and -1.0779 and -15.1434 and 16.2214 and 5.631 and -0.462 and -5.169 and -3.138 and 4.714 and -1.576 and 1.587 and 11.4832 and -0.3739 and -1.213 and -14.9335 and -0.4874 and 0.03891 and 0.4485 and -4.142 and 2.431 and 1.7112. In addition, the cAMP % in assay [2] (Log[drug] (M) -5) is 103.124% and 109.477% and 102.684% and 110.427% and 108.861% and 108.591% and 112.306% and 111.09%; in assay [2] (Log[drug] (M) -6) it was 98.2575% and 92.1607% and 109.669% and 106.978% and 96.9047% and 104.556% and 112.319% and 93.9893% and 98.3933%; in assay [2] (Log[drug] (M) -7), 84.826% and 103.003% and 98.5438% and 92.203% and 94.9009% and 88.7302% and 91.8158% and 88.9226% and 95.649%; in assay [2] (Log[drug] (M) -8) it was 90.1183% and 95.617% and 94.9621% and 80.7074% and 80.5991% and 79.7704% and 101.871%; in assay [2] (Log[drug] (M) -9), 83.2929% and 84.9251% and 85.9398% and 87.1639% and 70.6227% and 86.8862% and 70.8595%; in assay [2] (Log[drug] (M) -10) it was 23.9872% and 31.9271% and 31.1042% and 26.2749% and 20.3118% and 16.9632% and 5.794% and 13.2278% and 15.6275%. The cAMP % in assay [2] (Log[drug] (M) -11) is 7.017% and -4.712% and 3.0598% and 13.9517% and -4.528% and 3.447% and 8.388% and -3.773% and -4.615%; in assay [2] (setting [5]) it was 1.163% and -6.717% and 5.554% and 6.145% and -10.7075% and 4.5627% and 2.101% and 2.953% and 0.8452%; in assay [3] (Log[drug] (M) -5), 102.015% and 97.5784% and 104.579% and 96.6295% and 98.3687% and 104.58% and 107.049% and 113.123% and 108.981%; in assay [3] (Log[drug] (M) -6), 105.759% and 89.6935% and 102.343% and 97.3213% and 106.448% and 102.195% and 98.7916% and 100.678% and 92.5396%; in assay [3] (Log[drug] (M) -7), 94.7459% and 89.7557% and 84.4404% and 103.092% and 95.8909% and 105.68% and 91.1195% and 91.3937% and 91.5037%; in assay [3] (Log[drug] (M) -8) it was 54.4279% and 44.3207% and 58.3553% and 86.2498% and 84.9633% and 88.7212% and 82.7217% and 81.9867% and 95.6687%. The cAMP % in assay [3] (Log[drug] (M) -9) was 14.6461% and 18.37% and 18.8483% and 47.9% and 59.4105% and 56.9807% and 36.8388% and 43.8092% and 46.1925%; in assay [3] (Log[drug] (M) -10), 1.728% and 0.08907% and -1.817% and 16.1543% and 6.811% and 19.2753% and 3.3167% and 1.639% and 10.5208%; in assay [3] (Log[drug] (M) -11) it was 6.094% and 2.441% and 8.528% and 5.436% and 3.7044% and 1.349% and 1.812% and -1.084% and -0.7282%; in assay [3] (setting [5]), -0.3434% and 15.5805% and 1.417% and -1.196% and 0.717% and 0.4788% and 1.6944% and 5.324% and 4.584%.
For `CC[C@@H]1CN2CC[C@@]3(O)C(=Nc4cc(Cl)cc(OC)c43)[C@@H]2C[C@@H]1/C(=C\OC)C(=O)OC` [11-Cl-7OH], the “%MPE” value was 2.8 %MPE in assay [4] (5 mg/kg, 15 min); 1.6 %MPE in assay [4] (5 mg/kg, 30 min); 3.3 %MPE in assay [4] (5 mg/kg, 60 min); 2.83 %MPE in assay [4] (25 mg/kg, 15 min); 5.91 %MPE in assay [4] (25 mg/kg, 30 min); 6.34 %MPE in assay [4] (25 mg/kg, 60 min). The “%MPE” value in assay [4] (25 mg/kg, 150 min) is recorded as 2.66 %MPE. Also, the “Tail flick (%MPE), average” value was 2.3 %MPE in assay [4] (5 mg/kg, 15 min); 1.3 %MPE in assay [4] (5 mg/kg, 30 min); 2.6 %MPE in assay [4] (25 mg/kg, 15 min); 5.5 %MPE in assay [4] (25 mg/kg, 30 min); 6.0 %MPE in assay [4] (25 mg/kg, 60 min); -0.273 %MPE in assay [4] (25 mg/kg, 150 min). In addition, the “Tail flick latency in secs, Av” value turned out to be 3.3 s in assay [4] (5 mg/kg, 15 min); 3.2 s in assay [4] (5 mg/kg, 30 min); 3.3 s in assay [4] (5 mg/kg, 60 min). The “Tail flick (%MPE)” value is -5.1 %MPE and -18.5 %MPE and 0.7 %MPE and 1.6 %MPE (2×) and 16.4 %MPE and 17.5 %MPE and 4.0 %MPE in assay [4] (5 mg/kg, 15 min); -2.2 %MPE and -3.2 %MPE and 0.7 %MPE and -10.9 %MPE and 7.5 %MPE and 4.7 %MPE and 10.0 %MPE and 4.0 %MPE in assay [4] (5 mg/kg, 30 min); -2.9 %MPE and -16.1 %MPE and 7.0 %MPE and -1.6 %MPE and 1.5 %MPE and -10.9 %MPE and 21.3 %MPE and 20.0 %MPE in assay [4] (5 mg/kg, 60 min); 12.5 %MPE and -0.8 %MPE and 0.7 %MPE and -0.7 %MPE (2×) and 10.4 %MPE and -3.5 %MPE and 2.7 %MPE in assay [4] (25 mg/kg, 15 min); 12.5 %MPE and -11.5 %MPE and 9.0 %MPE and 3.6 %MPE and 10.1 %MPE and 10.4 %MPE and 3.5 %MPE and 6.8 %MPE in assay [4] (25 mg/kg, 30 min); 7.5 %MPE and -7.7 %MPE and 10.3 %MPE and 2.1 %MPE and 12.2 %MPE and 22.1 %MPE and 0.7 %MPE (2×) in assay [4] (25 mg/kg, 60 min). In addition, the “Tail flick (%MPE)” value in assay [4] (25 mg/kg, 150 min) is -10.0 %MPE and 3.1 %MPE and 2.8 %MPE and -5.0 %MPE and 4.7 %MPE and 2.9 %MPE and -0.7 %MPE and 0.0 %MPE. In addition, the “Tail flick latency” value in assay [4] (5 mg/kg, 15 min) was 2.75 secs and 2.65 secs and 2.95 secs and 3.7 secs (2×) and 4.4 secs and 3.4 secs and 2.8 secs; in assay [4] (5 mg/kg, 30 min), 2.95 secs (2×) and 3.6 secs and 2.9 secs and 3.8 secs and 3.9 secs and 2.8 secs (2×); in assay [4] (5 mg/kg, 60 min), 2.9 secs (2×) and 2.8 secs and 3.4 secs (2×) and 3.5 secs and 3.7 secs and 4 secs; in assay [4] (25 mg/kg, 15 min), 3.0 secs (2×) and 3.5 secs and 2.8 secs and 2.6 secs (2×) and 3.1 secs and 2.9 secs; in assay [4] (25 mg/kg, 30 min), 3.0 secs and 2.8 secs and 3.4 secs (2×) and 3.3 secs and 3.1 secs (2×) and 3.2 secs; in assay [4] (25 mg/kg, 60 min), 2.6 secs and 3.0 secs and 3.5 secs (2×) and 3.2 secs and 4.0 secs and 2.9 secs and 2.8 secs. In assay [4] (25 mg/kg, 150 min), the “Tail flick latency” value is 2.3 secs and 3.7 secs and 3.0 secs and 2.6 secs and 2.9 secs (2×) and 3.3 secs and 2.5 secs. In addition, the “Tail flick latency in secs, av” value in assay [4] (25 mg/kg, 15 min) is 2.9 s; in assay [4] (25 mg/kg, 30 min), 3.1 s; in assay [4] (25 mg/kg, 60 min), 3.2 s; in assay [4] (25 mg/kg, 150 min), 2.9 s.
As for `CN1CC[C@]23c4c5ccc(O)c4O[C@H]2[C@@H](O)C=C[C@H]3[C@H]1C5` [Morphine, morphine, reference compound], in assay [4] (Fig 9b, Morphine 10 mg/kg), the “Tail flick (%MPE)” value is 32.79 %MPE and 42.86 %MPE and 100.00 %MPE (6×) and 61.73 %MPE and 52.00 %MPE; the Tail flick latency was 5.9 and 6 and 10 (6×) and 6.9 and 6.4.
